These results are taken from ChEMBL document CHEMBL1133444, “N-cycloalkyl derivatives of adenosine and 1-deazaadenosine as agonists and partial agonists of the A(1) adenosine receptor” (J Med Chem, 2000).

Usually Ki stands for the equilibrium dissociation constant of an inhibitor or competing ligand from its target. Low readings indicate a stronger hold on the target, high ones a looser hold on the target. A word on the EC50: it is the concentration giving half of the maximal effect.

Structures are written as SMILES.

In one assay the target is Adenosine receptor A2a (Rattus norvegicus, UniProt P30543). Briefly: Binding affinity for adenosine A2A receptor was determined by displacement of [3H]CGS 21680 from rat striatal membranes. (In general: Displacement assays read how much labelled ligand stays bound in the presence of the test substance.)
Chain of Adenosine receptor A2a (P30543 whole entry): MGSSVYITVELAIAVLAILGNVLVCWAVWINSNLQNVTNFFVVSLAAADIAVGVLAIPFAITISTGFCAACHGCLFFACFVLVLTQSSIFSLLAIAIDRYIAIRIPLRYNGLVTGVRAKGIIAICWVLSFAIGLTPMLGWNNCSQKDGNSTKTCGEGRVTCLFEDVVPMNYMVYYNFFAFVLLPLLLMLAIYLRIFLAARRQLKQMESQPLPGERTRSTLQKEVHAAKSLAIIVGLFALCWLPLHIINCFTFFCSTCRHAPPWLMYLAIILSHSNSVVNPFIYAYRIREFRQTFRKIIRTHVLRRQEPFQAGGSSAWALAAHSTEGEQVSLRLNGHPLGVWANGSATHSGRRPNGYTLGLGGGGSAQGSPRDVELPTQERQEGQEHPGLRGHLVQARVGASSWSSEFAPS
Assay [1] concerns the target T1, Adenosine receptor A1 (Rattus norvegicus, UniProt P25099).
T1 sequence (P25099 whole entry): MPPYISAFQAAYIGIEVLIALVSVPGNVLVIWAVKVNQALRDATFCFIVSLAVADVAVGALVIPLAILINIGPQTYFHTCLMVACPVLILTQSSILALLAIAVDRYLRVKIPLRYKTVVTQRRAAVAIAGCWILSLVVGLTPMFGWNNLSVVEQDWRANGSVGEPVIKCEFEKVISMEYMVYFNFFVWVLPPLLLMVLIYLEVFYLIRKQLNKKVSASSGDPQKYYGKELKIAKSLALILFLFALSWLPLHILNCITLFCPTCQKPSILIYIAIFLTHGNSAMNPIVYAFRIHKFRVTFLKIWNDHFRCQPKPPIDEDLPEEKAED

Assay [2] deals with T1, Adenosine receptor A1. The assay can be described thus: Stimulation of [35S]GTP-gamma-S, binding to rat brain membranes by adenosine A1 receptor activation. Type of assay: functional, cell membranes, Membrane.
Assay [3] addresses T1, Adenosine receptor A1. Briefly: Binding affinity for adenosine A1 receptor, was assessed from the ability to displace [3H]-DPCPX (without GTP) from rat cortical membranes.
The target in assay [4] is T2, Adenosine receptor A1 (Rattus norvegicus) (UniProt P25099).
T2 sequence (whole entry): T1 sequence (P25099 whole entry)
Description: Binding affinity for adenosine A1 receptor, was assessed from the ability to displace [3H]DPCPX (without GTP) from rat cortical membranes, activity expressed as KL (affinity for the low-affinity state)

The target in assay [5] is T2, Adenosine receptor A1 (Rattus norvegicus). The source holds these as a separate data set.
Description: Binding affinity for adenosine A1 receptor, was assessed from the ability to displace [3H]DPCPX (without GTP) from rat cortical membranes, activity expressed as KH (affinity for the high-affinity state)
Assay [6] shares this target. Briefly: Percent relative intrinsic activity with reference to CCPA.
The target of assay [7] is T1, Adenosine receptor A1. The assay can be described thus: Binding affinity for adenosine A1 receptor was assayed by displacement of [3H]DPCPX from rat cortical membranes. Type of assay: cell membranes, Membrane.
Assay [8] concerns the target T2, Adenosine receptor A1 (Rattus norvegicus). This is another data set of the same source.
Assay [9] is described as follows: % of the receptors in the high affinity state.
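Wherever KH is given: displacement of [3H]DPCPX binding from rat cortical membranes in the absence of GTP, KH giving affinity for the high-affinity receptor state.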
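Wherever KL is given: displacement of [3H]DPCPX from rat cortical membranes, assayed without GTP, with KL giving affinity for the low-affinity state of the receptor.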

`OC[C@H]1O[C@@H](n2cnc3c(NC4CCCC4)ncnc32)[C@H](O)[C@@H]1O` [N6-CYCLOPENTYLADENOSINE] showed an inhibition constant (Ki) on Adenosine receptor A2a of 3370 nM. In other words, the single-digit micromolar range.

With `OC[C@H]1O[C@@H](n2cnc3c(NC4CC4)nc(Cl)nc32)C[C@@H]1O`, the Ki at Adenosine receptor A1 [1] was 14300 nM; on Adenosine receptor A1 [3], 724 nM. In addition, the EC50 at Adenosine receptor A1 [2] came to 6180 nM. The same compound showed a KL in assay [4] of 6.03 µM. The same compound returned a KH in assay [5] of 115 nM. For the same compound, the RIA in [6] is 20.8%.

On to `OC[C@H]1O[C@@H](n2cnc3c(NC4CCCC4)cc(Cl)nc32)[C@H](O)[C@@H]1O`, for which the Ki turned out to be 2840 nM on Adenosine receptor A2a and 49 nM on Adenosine receptor A1 [7]. In addition, at Adenosine receptor A1 [2], it took 408 nM to reach a half-maximal effect (EC50).

Consider `OC[C@H]1O[C@@H](n2cnc3c(NC4CCCCCC4)cc(Cl)nc32)[C@@H](O)C1O` (some centres not stated), for which the Ki on Adenosine receptor A2a was determined as 4870 nM; on Adenosine receptor A1 [7], 247 nM. Besides, it took 6580 nM to reach a half-maximal effect on Adenosine receptor A1 [2] (EC50).

As for `OC[C@H]1OC(n2cnc3c(NC4CCCCCCC4)nc(Cl)nc32)[C@H](O)[C@@H]1O` (some centres not stated), the Ki was 4230 nM on Adenosine receptor A2a and 122 nM on Adenosine receptor A1 [7].

On to `OC[C@H]1O[C@@H](n2cnc3c(NC4CC4)ncnc32)[C@H](O)[C@@H]1O`, for which the figures for the inhibition constant Ki on Adenosine receptor A2a and at Adenosine receptor A1 [7] were 510 nM and 26.7 nM, respectively. The compound further had an EC50 at Adenosine receptor A1 [2] of 709 nM.

Turning to `OC[C@H]1OC(n2cnc3c(NC4CCCCCC4)ccnc32)[C@H](O)[C@@H]1O` (some centres not stated), the Ki on Adenosine receptor A2a was determined as 9200 nM; at Adenosine receptor A1 [7], 364 nM. Besides, on Adenosine receptor A1 [2], the response was half-maximal at 6360 nM (EC50).

For `OC[C@H]1O[C@@H](n2cnc3c(NC4CCCCCCC4)ncnc32)[C@H](O)[C@@H]1O`, the figures for the Ki on Adenosine receptor A2a and at Adenosine receptor A1 [7] were 4180 nM and 53.5 nM, respectively.

As for `OC[C@H]1O[C@@H](n2cnc3c(NC4CCC4)nc(Cl)nc32)C[C@@H]1O`, the values for the Ki on Adenosine receptor A1 [1] and on Adenosine receptor A1 [3] were 3600 nM and 245 nM, respectively. Besides, the EC50 at Adenosine receptor A1 [2] worked out at 3710 nM. In assay [8], the RIA was determined as 19.5. In assay [4], the KL stood at 1.92 µM. Besides, the KH in [5] was determined as 33.3 nM.

At Adenosine receptor A2a, `OC[C@H]1O[C@@H](n2cnc3c(NC4CC4)nc(Cl)nc32)[C@H](O)[C@@H]1O` displayed a Ki of 2060 nM. The same compound showed an EC50 on Adenosine receptor A1 [2] of 57.3 nM.

On to `OC[C@H]1OC(n2cnc3c(NC4CCCCCC4)nc(Cl)nc32)[C@H](O)[C@@H]1O` (some centres not stated), for which the Ki at Adenosine receptor A2a is 1100 nM; at Adenosine receptor A1 [7] it was 37.9 nM. Further, the EC50 on Adenosine receptor A1 [2] came out at 431 nM.

`OC[C@H]1O[C@@H](n2cnc3c(NC4CCCC4)ncnc32)C[C@@H]1O`: the Ki at Adenosine receptor A1 [1] was 10200 nM; at Adenosine receptor A1 [3] it was 212 nM. This compound also yielded an EC50 on Adenosine receptor A1 [2] of 5760 nM. The same compound displayed an RIA in assay [8] of 42.1. Further, the KL in assay [4] is 3.52 µM. Also, in assay [5], the KH turned out to be 39.3 nM.

In the case of `OC[C@H]1O[C@@H](n2cnc3c(NC4CCCCC4)ncnc32)C[C@@H]1O`, the Ki at Adenosine receptor A1 [1] is 16700 nM; at Adenosine receptor A1 [3], 412 nM. For the same compound, the EC50 at Adenosine receptor A1 [2] was determined as 9640 nM. Moreover, the RIA in assay [8] stood at 40.1. In addition, in assay [4], the KL is 7.33 µM. The compound also gave a KH in [5] of 92.5 nM.

For `OC[C@H]1O[C@@H](n2cnc3c(NC4CCCCCCC4)ncnc32)C[C@@H]1O`, the Ki amounted to 9310 nM on Adenosine receptor A1 [1] and 586 nM at Adenosine receptor A1 [3]. In addition, in assay [8], the RIA turned out to be 0. Moreover, in [4], the KL turned out to be 4.19 µM. Moreover, in [9], the RHA was 45.9%. This compound also yielded a KH in assay [5] of 84.9 nM.

Regarding `OC[C@H]1O[C@@H](n2cnc3c(NC4CCCC4)ccnc32)[C@H](O)[C@@H]1O`, the Ki at Adenosine receptor A2a was 10100 nM; at Adenosine receptor A1 [7], 100 nM. Besides, on Adenosine receptor A1 [2], the EC50 came out at 475 nM.

Consider `OC[C@H]1O[C@@H](n2cnc3c(NC4CCCC4)nc(Cl)nc32)C[C@@H]1O`, for which the Ki at Adenosine receptor A1 [1] was found to be 1320 nM; at Adenosine receptor A1 [3], 154 nM. At Adenosine receptor A1 [2], this compound showed an EC50 of 1560 nM. This compound also registered an RIA in [8] of 8.3. In assay [4], this compound came in with a KL of 0.8 µM. For the same compound, in assay [5], the KH was found to be 18.5 nM.

On to `OC[C@H]1O[C@@H](n2cnc3c(NC4CCCCCC4)ncnc32)C[C@@H]1O`, for which the Ki on Adenosine receptor A1 [1] stood at 20400 nM; on Adenosine receptor A1 [3], 769 nM. Further, at Adenosine receptor A1 [2], the response was half-maximal at 13700 nM (EC50). Also, in assay [8], the RIA amounted to 24.9. The KL in assay [4] turned out to be 7.41 µM. Also, in assay [5], the KH turned out to be 124 nM.

`OC[C@H]1O[C@@H](n2cnc3c(NC4CCCCCC4)nc(Cl)nc32)C[C@@H]1O`: the Ki on Adenosine receptor A1 [1] amounted to 1090 nM; on Adenosine receptor A1 [3] it was 369 nM. In assay [8], this compound returned an RIA of 0. Further, in assay [4], the KL turned out to be 0.752 µM. The KH in [5] is 30.7 nM.

Take `OC[C@H]1O[C@@H](n2cnc3c(NC4CC4)cc(Cl)nc32)[C@H](O)[C@@H]1O`: the figures for the Ki at Adenosine receptor A2a and on Adenosine receptor A1 [7] were 9640 nM and 151 nM, respectively. The compound further had an EC50 on Adenosine receptor A1 [2] of 704 nM.

As to `OC[C@H]1O[C@@H](n2cnc3c(NC4CCC4)ncnc32)C[C@@H]1O`, the Ki on Adenosine receptor A1 [1] was 23600 nM; on Adenosine receptor A1 [3] it was 524 nM. This compound also yielded an EC50 on Adenosine receptor A1 [2] of 5110 nM. For the same compound, the RIA in assay [8] worked out at 33.8. In assay [4], this compound returned a KL of 8.3 µM. The compound also had a KH in [5] of 121 nM.

For `OC[C@H]1O[C@@H](n2cnc3c(NC4CCC4)ccnc32)[C@H](O)[C@@H]1O`, the Ki on Adenosine receptor A2a turned out to be 6550 nM; at Adenosine receptor A1 [7], 109 nM.

As to `OC[C@H]1O[C@@H](n2cnc3c(NC4CCCCC4)cc(Cl)nc32)[C@H](O)[C@@H]1O`, the results for the Ki at Adenosine receptor A2a and on Adenosine receptor A1 [7] were 5210 nM and 268 nM, respectively.

For `OC[C@H]1O[C@@H](n2cnc3c(NC4CCCCC4)ccnc32)[C@H](O)[C@@H]1O`, the Ki is 5120 nM at Adenosine receptor A2a and 169 nM at Adenosine receptor A1 [7].

Consider `OC[C@H]1O[C@@H](n2cnc3c(NC4CCCCCCC4)nc(Cl)nc32)C[C@@H]1O`, for which the Ki came out at 1410 nM at Adenosine receptor A1 [1] and 659 nM at Adenosine receptor A1 [3]. This compound also had an RIA in assay [8] of 0. Besides, the KL in assay [4] stood at 1.02 µM. In addition, the RHA in [9] is 14.5%. Further, in assay [5], the KH stood at 23.6 nM.

Take `OC[C@H]1O[C@@H](n2cnc3c(NC4CC4)ncnc32)C[C@@H]1O`: the RIA in assay [8] turned out to be 0.

In the case of `OC[C@H]1O[C@@H](n2cnc3c(NC4CCC4)nc(Cl)nc32)[C@H](O)[C@@H]1O`, the Ki came out at 460 nM on Adenosine receptor A2a and 5.3 nM at Adenosine receptor A1 [7].

On to `OC[C@H]1O[C@@H](n2cnc3c(NC4CCCCC4)nc(Cl)nc32)C[C@@H]1O`, for which the values for the Ki at Adenosine receptor A1 [1] and at Adenosine receptor A1 [3] were 2560 nM and 497 nM, respectively. The compound further displayed an RIA in assay [8] of 0. In assay [4], this compound returned a KL of 1.59 µM. In addition, the KH in assay [5] came out at 61.7 nM.

As for `OC[C@H]1O[C@@H](n2cnc3c(NC4CCC4)cc(Cl)nc32)[C@H](O)[C@@H]1O`, the values for the Ki on Adenosine receptor A2a and at Adenosine receptor A1 [7] were 3110 nM and 41 nM, respectively.

Take `OC[C@H]1O[C@@H](n2cnc3c(NC4CC4)ccnc32)[C@H](O)[C@@H]1O`: the Ki at Adenosine receptor A2a came to 16400 nM; at Adenosine receptor A1 [7], 326 nM. Also, a half-maximal effect at Adenosine receptor A1 [2] (EC50) was put at 1530 nM.

Take `OC[C@H]1O[C@@H](n2cnc3c(NC4CCCCCC4)ncnc32)[C@H](O)[C@@H]1O`: the Ki on Adenosine receptor A2a was found to be 3150 nM; on Adenosine receptor A1 [7], 19.6 nM. At Adenosine receptor A1 [2], the EC50 was determined as 86.4 nM.

For the compound `OC[C@H]1O[C@@H](n2cnc3c(NC4CCCCC4)nc(Cl)nc32)[C@H](O)[C@@H]1O`, the Ki at Adenosine receptor A2a came out at 590 nM; at Adenosine receptor A1 [7], 31.7 nM.

Take `OC[C@H]1OC(n2cnc3c(NC4CCCCCCC4)ccnc32)[C@H](O)[C@@H]1O` (some centres not stated): the Ki turned out to be 13700 nM on Adenosine receptor A2a and 539 nM on Adenosine receptor A1 [7].

On to `OC[C@H]1OC(n2cnc3c(NC4CCCCCCC4)cc(Cl)nc32)[C@H](O)[C@@H]1O` (some centres not stated), for which the Ki is 20000 nM on Adenosine receptor A2a and 595 nM on Adenosine receptor A1 [7].

As for `OC[C@H]1O[C@@H](n2cnc3c(NC4CCC4)ncnc32)[C@H](O)[C@@H]1O`, the Ki on Adenosine receptor A2a turned out to be 420 nM; on Adenosine receptor A1 [7], 3.92 nM.
